Measurements published in patent US10259847B2, “Beta-hairpin peptidomimetics” (POLYPHOR AG, priority 2014, dated 2019).
Where a SMILES comes first, the peptide text is derived from it. Bridges are numbered along the chain shown (N, C = ends). [ ]: non-standard residue; d: D form. Tle = CC(C)(C)[C@H](N)C(=O)O; dDab = NCC[C@@H](N)C(=O)O; NMeA = CN[C@@H](C)C(=O)O; Orn = NCCC[C@H](N)C(=O)O; Dab = NCC[C@H](N)C(=O)O; Dap = NC[C@H](N)C(=O)O

What was measured:
Format in all cases: cell-based
[1] = tested on: human red blood cells (hRBC); assay: Hemolysis of human red blood cells; settings: red cells of human, 1 h, 100
Procedure: (§1) Stock solutions were kept at +4° C., light protected.
Percent hemolysis was calculated as follows: (OD540peptide/OD540H2O)×100%.

[2] = tested on: Escherichia coli ATCC 25922; settings: ATCC 25922
Procedure: as §1
(§2) The selective antimicrobial activities of the peptides were determined in 96-well plates (Greiner, polystyrene) by the standard NCCLS broth microdilution method (National Committee for Clinical Laboratory Standards 1993. Methods for dilution antimicrobial susceptibility tests for bacteria that grow aerobically, 3rd ed. Approved standard M7-A6; National Committee for Clinical laboratory standards, Wayne, Pa.) with slight modifications. Inocula of the microorganisms were diluted into Mueller-Hinton II (MH, cation adjusted) broth and compared with a 0.5 McFarland standard to give appr. 10^6 colony forming units (CFU)/mL. Aliquots (90 μl) of inoculate were added to 10 μl of MH broth+P-80 (Polysorbate 80, 0.002% final concentration) containing the peptide in serial two-fold dilutions. The following microorganisms were used to determine antibiotic selectivity of the peptides: Escherichia coli ATCC 25922, Klebsiella pneumoniae ATCC 13883 and Acinetobacter baumannii DSM 30008.

[3] = tested on: Acinetobacter baumannii DSM 30008; settings: DSM 30008
Procedure: as §1, §2

[4] = tested on: Klebsiella pneumoniae ATCC 13883; settings: ATCC 13883
Procedure: as §1, §2

SMILES	Hemolysis at 100 μg/mL [1]	Escherichia coli ATCC 25922 MIC [2]	Acinetobacter baumannii DSM 30008 MIC [3]	Klebsiella pneumoniae ATCC 13883 MIC [4]
CC(C)[C@@H]1NC(=O)[C@H](C)N(C)C(=O)[C@H]2CCCN2C(=O)[C@H](CO)NC(=O)[C@@H]2CSSC[C@H](NC1=O)C(=O)N[C@@H](Cc1ccc(O)cc1)C(=O)N[C@@H](CCN)C(=O)N[C@@H](CN)C(=O)N[C@H](CCN)C(=O)N[C@@H](CCN)C(=O)N[C@@H](Cc1c[nH]c3ccccc13)C(=O)N[C@@H](CCN)C(=O)N[C@@H](C(C)(C)C)C(=O)N2 [Example 9, cyclo(-Val-Cys-Tyr-Dab-Dap-^DDab-Dab-Trp-Dab-tBuGly-Cys-Ser-^DPro-NMeAla-)] (cyclo(CS[dP][NMeA]VCY[Dab][Dap][dDab][Dab]W[Dab][Tle]); disulfide 1-6)	6%	0.5 µg/mL	1 µg/mL	1 µg/mL
CC(C)C[C@@H]1NC(=O)[C@H](CCN)NC(=O)[C@H]2CCCN2C(=O)[C@H](C(C)C)NC(=O)[C@@H]2CSSC[C@H](NC1=O)C(=O)N[C@@H](Cc1ccc(O)cc1)C(=O)N[C@@H](C)C(=O)N[C@@H](CCCN)C(=O)N[C@H](CCN)C(=O)N[C@@H](CCN)C(=O)N[C@@H](Cc1c[nH]c3ccccc13)C(=O)N[C@@H](C)C(=O)N[C@@H](C(C)C)C(=O)N2 [Example 5, cyclo(-Leu-Cys-Tyr-Ala-Orn-^DDab-Dab-Trp-Ala-Val-Cys-Val-^DPro-Dab-)] (HELM PEPTIDE1{A.[Orn].[NCC[C@@H](N[*:1])C(=O)[*:2]].[Dab].W.A.V.C.V.[dP].[Dab].L.C.Y}$PEPTIDE1,PEPTIDE1,8:R3-13:R3|PEPTIDE1,PEPTIDE1,1:R1-14:R2$$$V2.0)	3%	2 µg/mL	1 µg/mL	2 µg/mL
CC(C)C[C@@H]1NC(=O)[C@@H]2CCCN2C(=O)[C@H]2CCCN2C(=O)[C@H](CO)NC(=O)[C@@H]2CNC(=O)CC[C@H](NC1=O)C(=O)N[C@@H](Cc1ccc(O)cc1)C(=O)N[C@@H](CCN)C(=O)N[C@@H](CCCN)C(=O)N[C@@H](CCN)C(=O)N[C@@H](CCN)C(=O)N[C@@H](Cc1c[nH]c3ccccc13)C(=O)N[C@@H](CCN)C(=O)N[C@@H](C(C)(C)C)C(=O)N2 [Example 18, cyclo(-Leu-Glu-Tyr-Dab-Orn-Dab-Dab-Trp-Dab-tBuGly-Dap-Ser-^DPro-Pro-)] (HELM PEPTIDE1{L.E.Y.[Dab].[Orn].[Dab].[Dab].W.[Dab].[CC(C)(C)[C@H](N[*:1])C(=O)[*:2]].[O=C([C@H](CN[*:3])N[*:1])[*:2]].S.[dP].P}$PEPTIDE1,PEPTIDE1,2:R3-11:R3|PEPTIDE1,PEPTIDE1,1:R1-14:R2$$$V2.0)	0%	2 µg/mL	3 µg/mL	0.5 µg/mL
CC(C)C[C@@H]1NC(=O)[C@H](CCCCN)NC(=O)[C@H]2CCCN2C(=O)[C@H](C(C)C)NC(=O)[C@@H]2CSSC[C@H](NC1=O)C(=O)N[C@@H](Cc1ccc(O)cc1)C(=O)N[C@@H](C)C(=O)N[C@@H](CCCN)C(=O)N[C@H](CCN)C(=O)N[C@@H](CCN)C(=O)N[C@@H](Cc1c[nH]c3ccccc13)C(=O)N[C@@H](C)C(=O)N[C@@H](C(C)C)C(=O)N2 [Example 3, cyclo(-Leu-Cys-Tyr-Ala-Orn-^DDab-Dab-Trp-Ala-Val-Cys-Val-^DPro-Lys-)] (HELM PEPTIDE1{A.[Orn].[NCC[C@@H](N[*:1])C(=O)[*:2]].[Dab].W.A.V.C.V.[dP].K.L.C.Y}$PEPTIDE1,PEPTIDE1,8:R3-13:R3|PEPTIDE1,PEPTIDE1,1:R1-14:R2$$$V2.0)	3.5%	2 µg/mL	1 µg/mL	4 µg/mL
CC(C)[C@@H]1NC(=O)[C@@H]2CCCN2C(=O)[C@H]2CCCN2C(=O)[C@H](CO)NC(=O)[C@@H]2CC(=O)NCC[C@H](NC1=O)C(=O)N[C@@H](Cc1ccc(O)cc1)C(=O)N[C@@H](CCN)C(=O)N[C@@H](CCN)C(=O)N[C@H](CCN)C(=O)N[C@@H](CCN)C(=O)N[C@@H](Cc1c[nH]c3ccccc13)C(=O)N[C@@H](CCN)C(=O)N[C@@H](c1ccccc1)C(=O)N2 [Example 16, cyclo(-Val-Dab-Tyr-Dab-Dab-^DDab-Dab-Trp-Dab-Phg-Asp-Ser-^DPro-Pro-)] (HELM PEPTIDE1{V.[Dab].Y.[Dab].[Dab].[NCC[C@@H](N[*:1])C(=O)[*:2]].[Dab].W.[Dab].[Phg].D.S.[dP].P}$PEPTIDE1,PEPTIDE1,2:R3-11:R3|PEPTIDE1,PEPTIDE1,1:R1-14:R2$$$V2.0)	1%	0.5 µg/mL	1 µg/mL	0.5 µg/mL
CC[C@H](C)[C@@H]1NC(=O)[C@@H]2CCCN2C(=O)[C@H]2CCCN2C(=O)[C@H](Cc2ccc(O)cc2)NC(=O)[C@@H]2CSSC[C@H](NC1=O)C(=O)N[C@@H](Cc1ccc(O)cc1)C(=O)N[C@@H](CCN)C(=O)N[C@@H](CCCN)C(=O)N[C@H](CCN)C(=O)N[C@@H](CCN)C(=O)N[C@@H](CC(C)C)C(=O)N[C@@H](CCN)C(=O)N[C@@H](C(C)C)C(=O)N2 [Example 7, cyclo(-Ile-Cys-Tyr-Dab-Orn-^DDab-Dab-Leu-Dab-Val-Cys-Tyr-^DPro-Pro-)] (HELM PEPTIDE1{I.C.Y.[Dab].[Orn].[NCC[C@@H](N[*:1])C(=O)[*:2]].[Dab].L.[Dab].V.C.Y.[dP].P}$PEPTIDE1,PEPTIDE1,2:R3-11:R3|PEPTIDE1,PEPTIDE1,1:R1-14:R2$$$V2.0)	11%	0.5 µg/mL	1 µg/mL	0.25 µg/mL
CC(C)C[C@@H]1NC(=O)[C@@H]2CCCN2C(=O)[C@H]2CCCN2C(=O)[C@H](CO)NC(=O)[C@@H]2CNC(=O)C[C@H](NC1=O)C(=O)N[C@@H](Cc1ccc(O)cc1)C(=O)N[C@@H](CCN)C(=O)N[C@@H](CCCN)C(=O)N[C@H](CCN)C(=O)N[C@@H](CCN)C(=O)N[C@@H](Cc1c[nH]c3ccccc13)C(=O)N[C@@H](CCN)C(=O)N[C@@H](C(C)(C)C)C(=O)N2 [Example 21, cyclo(-Leu-Asp-Tyr-Dab-Orn-^DDab-Dab-Trp-Dab-tBuGly-Dap-Ser-^DPro-Pro-)] (cyclo(LDY[Dab][Orn][dDab][Dab]W[Dab][Tle][Dap]S[dP]P); lactam 2-11)	1%	2 µg/mL	4 µg/mL	0.5 µg/mL
CC[C@H](C)[C@@H]1NC(=O)[C@@H]2CCCN2C(=O)[C@H]2CCCN2C(=O)[C@H](CO)NC(=O)[C@@H]2CSSC[C@H](NC1=O)C(=O)N[C@@H](Cc1ccc(O)cc1)C(=O)N[C@@H](CCN)C(=O)N[C@@H](CCCN)C(=O)N[C@H](CCN)C(=O)N[C@@H](CCN)C(=O)N[C@@H](Cc1c[nH]c3ccccc13)C(=O)N[C@@H](CCN)C(=O)N[C@@H](C(C)(C)C)C(=O)N2 [Example 10, cyclo(-Ile-Cys-Tyr-Dab-Orn-^DDab-Dab-Trp-Dab-tBuGly-Cys-Ser-^DPro-Pro-)] (HELM PEPTIDE1{I.C.Y.[Dab].[Orn].[NCC[C@@H](N[*:1])C(=O)[*:2]].[Dab].W.[Dab].[CC(C)(C)[C@H](N[*:1])C(=O)[*:2]].C.S.[dP].P}$PEPTIDE1,PEPTIDE1,2:R3-11:R3|PEPTIDE1,PEPTIDE1,1:R1-14:R2$$$V2.0)	1%	1 µg/mL	1 µg/mL	0.25 µg/mL
C[C@@H]1NC(=O)[C@H](C(C)(C)C)NC(=O)[C@H](CCN)NC(=O)[C@H](Cc2c[nH]c3ccccc23)NC(=O)[C@H](CCN)NC(=O)[C@@H](CCN)NC(=O)[C@H](CCCN)NC(=O)[C@H](CCN)NC(=O)[C@H](Cc2ccc(O)cc2)NC(=O)[C@H](CN)NC(=O)[C@H](Cc2ccccc2)NC(=O)[C@H](Cc2ccc(O)cc2)NC(=O)[C@H]2CCCN2C(=O)[C@H](CO)NC1=O [Example 44, cyclo(-Phe-Dap-Tyr-Dab-Orn-^DDab-Dab-Trp-Dab-tBuGly-Ala-Ser-^DPro-Tyr-)] (cyclo(AS[dP]YF[Dap]Y[Dab][Orn][dDab][Dab]W[Dab][Tle]))	0%	0.5 µg/mL	1 µg/mL	0.25 µg/mL
CC(C)C[C@@H]1NC(=O)[C@@H]2CCCN2C(=O)[C@H]2CCCN2C(=O)[C@H](CO)NC(=O)[C@@H]2CC(=O)NC[C@H](NC1=O)C(=O)N[C@@H](Cc1ccc(O)cc1)C(=O)N[C@@H](CCN)C(=O)N[C@@H](CCCN)C(=O)N[C@H](CCN)C(=O)N[C@@H](CCN)C(=O)N[C@@H](Cc1c[nH]c3ccccc13)C(=O)N[C@@H](CCN)C(=O)N[C@@H](C(C)(C)C)C(=O)N2 [Example 36, cyclo(-Leu-Dap-Tyr-Dab-Orn-^DDab-Dab-Trp-Dab-tBuGly-Asp-Ser-^DPro-Pro-)] (cyclo(L[Dap]Y[Dab][Orn][dDab][Dab]W[Dab][Tle]DS[dP]P); lactam 2-11)	4.5%	0.5 µg/mL	1.5 µg/mL	0.125 µg/mL
